Measured values as given in patent US11154529B2, “Phosphaplatin liquid formulations” (Phosplatin Therapeutics Inc., priority 2016, dated 2021).

Experiment: Ready-to-use formulation stability at 2-8° C., 5 mg/mL (R,R)-pyrodach-2 in 10 mM Bicarbonate Buffer at pH 8.6, 10 mL vials
Type: physicochemical

O=P1(O)OP(=O)(O)[O][Pt]2([NH][C@@H]3CCCC[C@H]3[NH]2)[O]1 (stereo partly drawn) [(R,R)-pyrodach-2, (R,R)-trans-1,2-cyclohexanediamine-(dihydrogenpyrophosphato)platinum(II)]
Potency (Assay) (1 month): 99.1% | Purity (% Area) (1 month): 97.85% | Unknown Impurities RRT~0.29 (1 month): 0.14% | Unknown Impurities RRT~0.35 (1 month): ND (ND = Not Detected, or <0.05%) | Unknown Impurities RRT~0.41 (1 month): 0.05% | Unknown Impurities RRT~0.49 (1 month): 0.55% | Unknown Impurities RRT~0.59 (1 month): 0.08% | Unknown Impurities RRT~0.73 (1 month): 1.14% | Unknown Impurities RRT~1.51 (1 month): ND (ND = Not Detected, or <0.05%) | Unknown Impurities RRT~2.82 (1 month): ND (ND = Not Detected, or <0.05%) | Unknown Impurities RRT~3.44 (1 month): ND (ND = Not Detected, or <0.05%) | pH (1 month): 8.73 | Potency (Assay) (1 week): 101.9% | Purity (% Area) (1 week): 98.02% | Unknown Impurities RRT~0.29 (1 week): 0.10% | Unknown Impurities RRT~0.35 (1 week): ND (ND = Not Detected, or <0.05%) | Unknown Impurities RRT~0.41 (1 week): ND (ND = Not Detected, or <0.05%) | Unknown Impurities RRT~0.49 (1 week): 0.60% | Unknown Impurities RRT~0.59 (1 week): ND (ND = Not Detected, or <0.05%) | Unknown Impurities RRT~0.73 (1 week): 1.11% | Unknown Impurities RRT~1.51 (1 week): ND (ND = Not Detected, or <0.05%) | Unknown Impurities RRT~2.82 (1 week): ND (ND = Not Detected, or <0.05%) | Unknown Impurities RRT~3.44 (1 week): ND (ND = Not Detected, or <0.05%) | pH (1 week): 8.57 | Potency (Assay) (2 month): 102.4% | Purity (% Area) (2 month): 97.58% | Unknown Impurities RRT~0.29 (2 month): 0.21% | Unknown Impurities RRT~0.35 (2 month): ND (ND = Not Detected, or <0.05%) | Unknown Impurities RRT~0.41 (2 month): 0.11% | Unknown Impurities RRT~0.49 (2 month): 0.62% | Unknown Impurities RRT~0.59 (2 month): 0.15% | Unknown Impurities RRT~0.73 (2 month): 1.03% | Unknown Impurities RRT~1.51 (2 month): ND (ND = Not Detected, or <0.05%) | Unknown Impurities RRT~2.82 (2 month): ND (ND = Not Detected, or <0.05%) | Unknown Impurities RRT~3.44 (2 month): 0.06% | pH (2 month): 8.76 | Potency (Assay) (2 week): 100.5% | Purity (% Area) (2 week): 97.99% | Unknown Impurities RRT~0.29 (2 week): 0.12% | Unknown Impurities RRT~0.35 (2 week): ND (ND = Not Detected, or <0.05%) | Unknown Impurities RRT~0.41 (2 week): ND (ND = Not Detected, or <0.05%) | Unknown Impurities RRT~0.49 (2 week): 0.63% | Unknown Impurities RRT~0.59 (2 week): 0.06% | Unknown Impurities RRT~0.73 (2 week): 1.14% | Unknown Impurities RRT~1.51 (2 week): ND (ND = Not Detected, or <0.05%) | Unknown Impurities RRT~2.82 (2 week): ND (ND = Not Detected, or <0.05%) | Unknown Impurities RRT~3.44 (2 week): ND (ND = Not Detected, or <0.05%) | pH (2 week): 8.65 | Potency (Assay) (3 month): 102.3% | Purity (% Area) (3 month): 97.76% | Unknown Impurities RRT~0.29 (3 month): 0.29% | Unknown Impurities RRT~0.35 (3 month): ND (ND = Not Detected, or <0.05%) | Unknown Impurities RRT~0.41 (3 month): 0.13% | Unknown Impurities RRT~0.49 (3 month): 0.53% | Unknown Impurities RRT~0.59 (3 month): 0.15% | Unknown Impurities RRT~0.73 (3 month): 0.89% | Unknown Impurities RRT~1.51 (3 month): 0.06% | Unknown Impurities RRT~2.82 (3 month): 0.05% | Unknown Impurities RRT~3.44 (3 month): ND (ND = Not Detected, or <0.05%) | pH (3 month): 8.95 | Potency (Assay) (3 week): 100.0% | Purity (% Area) (3 week): 97.91% | Unknown Impurities RRT~0.29 (3 week): 0.14% | Unknown Impurities RRT~0.35 (3 week): ND (ND = Not Detected, or <0.05%) | Unknown Impurities RRT~0.41 (3 week): ND (ND = Not Detected, or <0.05%) | Unknown Impurities RRT~0.49 (3 week): 0.56% | Unknown Impurities RRT~0.59 (3 week): 0.07% | Unknown Impurities RRT~0.73 (3 week): 1.11% | Unknown Impurities RRT~1.51 (3 week): ND (ND = Not Detected, or <0.05%) | Unknown Impurities RRT~2.82 (3 week): ND (ND = Not Detected, or <0.05%) | Unknown Impurities RRT~3.44 (3 week): ND (ND = Not Detected, or <0.05%) | pH (3 week): 8.67 | Potency (Assay) (4 month): 103.5% | Purity (% Area) (4 month): 98.07% | Unknown Impurities RRT~0.29 (4 month): 0.15% | Unknown Impurities RRT~0.35 (4 month): ND (ND = Not Detected, or <0.05%) | Unknown Impurities RRT~0.41 (4 month): 0.16% | Unknown Impurities RRT~0.49 (4 month): 0.68% | Unknown Impurities RRT~0.59 (4 month): 0.09% | Unknown Impurities RRT~0.73 (4 month): 0.72% | Unknown Impurities RRT~1.51 (4 month): 0.05% | Unknown Impurities RRT~2.82 (4 month): 0.05% | Unknown Impurities RRT~3.44 (4 month): ND (ND = Not Detected, or <0.05%) | pH (4 month): 8.83 | Potency (Assay) (6 month): 100.4% | Purity (% Area) (6 month): 97.56% | Unknown Impurities RRT~0.29 (6 month): 0.23% | Unknown Impurities RRT~0.35 (6 month): ND (ND = Not Detected, or <0.05%) | Unknown Impurities RRT~0.41 (6 month): 0.23% | Unknown Impurities RRT~0.49 (6 month): 0.65% | Unknown Impurities RRT~0.59 (6 month): 0.21% | Unknown Impurities RRT~0.73 (6 month): 0.90% | Unknown Impurities RRT~1.51 (6 month): ND (ND = Not Detected, or <0.05%) | Unknown Impurities RRT~2.82 (6 month): ND (ND = Not Detected, or <0.05%) | Unknown Impurities RRT~3.44 (6 month): 0.09% | pH (6 month): 8.84 | Potency (Assay) (9 month): 102.2% | Purity (% Area) (9 month): 97.73% | Unknown Impurities RRT~0.29 (9 month): 0.15% | Unknown Impurities RRT~0.35 (9 month): ND (ND = Not Detected, or <0.05%) | Unknown Impurities RRT~0.41 (9 month): 0.33% | Unknown Impurities RRT~0.49 (9 month): 0.58% | Unknown Impurities RRT~0.59 (9 month): 0.24% | Unknown Impurities RRT~0.73 (9 month): 0.43% | Unknown Impurities RRT~1.51 (9 month): 0.05% | Unknown Impurities RRT~2.82 (9 month): 0.13% | Unknown Impurities RRT~3.44 (9 month): 0.16% | pH (9 month): 9.07 | Potency (Assay) (12 month): 100.3% | Purity (% Area) (12 month): 96.64% | Unknown Impurities RRT~0.29 (12 month): 0.13% | Unknown Impurities RRT~0.35 (12 month): 0.05% | Unknown Impurities RRT~0.41 (12 month): 0.47% | Unknown Impurities RRT~0.49 (12 month): 0.64% | Unknown Impurities RRT~0.59 (12 month): 0.27% | Unknown Impurities RRT~0.73 (12 month): 0.98% | Unknown Impurities RRT~1.51 (12 month): ND (ND = Not Detected, or <0.05%) | Unknown Impurities RRT~2.82 (12 month): 0.19% | Unknown Impurities RRT~3.44 (12 month): 0.28% | pH (12 month): 8.97 | Potency (Assay) (Initial): 100.3% | Purity (% Area) (Initial): 98.04% | Unknown Impurities RRT~0.29 (Initial): 0.11% | Unknown Impurities RRT~0.35 (Initial): ND (ND = Not Detected, or <0.05%) | Unknown Impurities RRT~0.41 (Initial): ND (ND = Not Detected, or <0.05%) | Unknown Impurities RRT~0.49 (Initial): 0.62% | Unknown Impurities RRT~0.59 (Initial): ND (ND = Not Detected, or <0.05%) | Unknown Impurities RRT~0.73 (Initial): 1.05% | Unknown Impurities RRT~1.51 (Initial): ND (ND = Not Detected, or <0.05%) | Unknown Impurities RRT~2.82 (Initial): ND (ND = Not Detected, or <0.05%) | Unknown Impurities RRT~3.44 (Initial): ND (ND = Not Detected, or <0.05%) | pH (Initial): 8.60
